The values that follow come from paper PMC5289073, “Stable expression and functional characterisation of the diamondback moth ryanodine receptor G4946E variant conferring resistance to diamide insecticides” (Scientific Reports, 2015).

Assay [1] deals with T1, P. xylostella WT RyR (Plutella xylostella, UniProt K7W8M2). Nature of the assay: Calcium fluorescence (Fluo8, FLIPR Tetra), Sf9 cells stably expressing wild-type RyR (Sf9-wtRyR). It is filed as cell-based. To be noted: for Intracellular calcium signal over time (Fluo8): caffeine 30 mM, flubendiamide-sulfoxide 1 μM, chlorantraniliprole 1 μM. The procedure: Single Sf9 cell clones stably expressing either the wild-type (Sf9-wtRyR) or the G4946E (Sf9-mRyR) RyR channel were isolated after a few cycles of clonal selection. […] This may be explained by compensatory calcium re-uptake mechanisms of the sarco-/endoplasmic reticulum, in particular the Ca^2+-ATPase (SERCA)[32][33].
Fluorescence of the calcium-Fluo8 complex was measured as a function of time.
Measurements of the integrated calcium signals as a function of the diamide concentration, gave characteristic dose-response curves, from which apparent EC50 concentrations for flubendiamide-sulfoxide and chlorantraniliprole were calculated (Fig. 6). These values represent the effector concentration causing half-maximal integrated calcium signals in the cells. […] It should be noted that the EC50 values are not only determined by the compound’s affinities to the RyR, but also by their availability at the intracellular target site as influenced by their physico-chemical properties.
(§1) Figure 6 Calcium transients in Sf9 cells stably expressing either the P. xylostella WT (●) or the modified (G4946E) RyR (▲) as a function of the diamide concentration. Calcium-dye (Fluo8) fluorescence was measured after (a) flubendiamide-sulfoxide or (b) chlorantraniliprole application as a function of time. The integrated fluorescence signals were plotted against the logarithm of the effector concentration. Data fitting and EC50 calculations were performed with the SigmaPlot v13 software package.
(§2) Cells were transfected as described above and subjected to selection with 300 μg ml^−1 zeocin by the dilution method, essentially as described in the manufacturer´s manual (Invitrogen). After a few successive rounds of clonal selection, zeocin-resistant cell clones were tested for functional RyR expression by calcium fluorescence measurements.
(§3) Calcium-dye fluorescence was measured with Fluo8-loaded cells on the FLIPR Tetra instrument (Molecular Devices) in the 384 microtiter plate format. 1.5 × 10[4] cells per well were treated with variable concentrations of effector compounds in a total volume of 80 μl Tyrode´s buffer containing 0.1% DMSO (final concentration) essentially following the established protocols provided with the Fluo8 No-Wash calcium assay kit (Molecular Devices). Excitation and emission wavelengths were set at 490 nm and 525 nm, respectively.

In assay [2] the target is T2, P. xylostella G4946E RyR (Plutella xylostella, UniProt K7W8M2, G4900E). As to the kind of experiment: Calcium fluorescence (Fluo8, FLIPR Tetra), Sf9 cells stably expressing G4946E RyR (Sf9-mRyR). Type of assay: cell-based. How it is done:
as §1
The efficacy of both diamides was reduced dramatically in the Sf9-mRyR cells expressing the G4946E RyR.
as §2, §3

In a further assay the test system is Adoxophyes honmai. The arrangement: method as in ref 40 = [40]; Uchiyama T. & Ozawa A. Rapid development of resistance to diamide insecticides in the smaller tea tortrix, Adoxophyes honmai (Lepidoptera: Tortricidae), in the tea fields of Shizuoka Prefecture, Japan. The following applies: cited from earlier work.
Assay [3] relates to P. xylostella RyR (thoracic microsomal membranes). The following applies: Philippine strain versus susceptible strain; cited from earlier work.
In another assay the test system is Tuta absoluta. Set-up: method as in ref 39 = [39]; Roditakis E. et al. First report of Tuta absoluta resistance to diamide insecticides . J Pest Sci. 88 , 9 – 16 ( 2015 ). The following applies: T. absoluta population from Sicily (Italy), up; cited from earlier work.
For another assay, the system named is Plutella xylostella. The following applies: cited from earlier work; for Resistance compared to susceptible strains: larvae collected from the Philippines and Thailand in 2012.
Assay [4] deals with P. xylostella ROTH WT RyR. Nature of the assay: Fura-2 AM calcium release, Sf9 cells transiently expressing ROTH WT RyR. Type of assay: cell-based, Plutella xylostella. To be noted: 72 h post transfection, caffeine 30 mM, flubendiamide sulfoxide 30 μM, flubendiamide 10 μM. How it is done: (§4) Figure 3 Fluorescence ratios measured over time in a single calcium release experiment using Fura-2 AM in Sf9 cells transiently expressing (a) WT construct and (b) the G4946E variant 72 h post transfection.
(§5) Sf9 cells (Life technologies) were maintained in Sf-900 II SFM (Gibco-life technologies) serum free media without antibiotic in 30 ml suspension cultures (shaking at 115 rpm) at a constant temperature of 27 °C. Cells used for transfection were seeded into 60 mm cell culture dishes (Corning®), at 2 × 10[6] cells per dish in 3 ml of Sf-900 II SFM, and left to attach for 1 h. Cells were transfected using 3 μg of plasmid DNA, 15 μl Cellfectin II reagent (Life technologies) and 5 μl PLUS™ enhancer reagent (Life technologies) per dish, following the manufacturer’s protocol.
(§6) Fura 2-AM dye (Life technologies, CA, USA) was used for monitoring calcium release in Sf9 cells transfected with the P. xylostella RyR. Approximately 2.5 × 10^5 of un-transfected SF9 cells were allowed to attach to Poly-L-lysine coated coverslips (Sigma, MA, USA) for 1 h and then transfected using Cellfectin™ II. 24 h, 48 h, 72 h and 96 h post transfection the cells were loaded with […] of Fura 2-AM calcium sensitive dye. Cells were left to incubate at 27 °C for 45–60 minutes, followed by 3 washes with 500 μl of fresh un-supplemented Sf-900 II medium. […]

The target in assay [5] is T2, P. xylostella G4946E RyR. It is filed as cell-based. The following applies: 72 h post transfection, caffeine 30 mM, flubendiamide 10 μM. How it is done: as §4, §5, §6
The target in assay [6] is rabbit skeletal muscle RyR. The arrangement: method as in PMID 11220363. To be noted: native preparation of rabbit skeletal muscle RyR; cited from earlier work.
Assay [7] deals with T2, P. xylostella G4946E RyR. Nature of the assay: [3H] ryanodine binding, membranes of Sf9 cells transiently expressing G4946E RyR. How it is done: (§7) Apparent differences in Kd and Bmax with those reported in other studies could likely be explained by the different experimental conditions.
(§8) Figure 4 Tritium labelled ryanodine binding from Sf9 membrane preparations expressing P. xylostella WT and G4946E RyRs.
(§9) For membrane preparation, transfected cells were harvested 48 h post transfection using phosphate buffered saline (PBS), the cells counted and then re-suspended in a hypo-osmotic buffer (20 mM Tris, 1 mM EDTA pH 7.4) at a concentration of 2 × 10[6] cells per ml. The cells were then homogenised and centrifuged at 1,500 g for 15 min at 4 °C to remove cell debris. The supernatant was removed, centrifuged at 100,000 g for 1 h at 4 °C and the membrane pellet re-suspended in a 0.4 M sucrose, 20 mM HEPES solution (20 μl per 2 × 10[6] cells). Protein concentration was determined using Bradford reagent (Bio-Rad) following the manufacturer’s instructions, against Bovine Serum Albumin (BSA) standards.
(§10) Binding reactions were set up in a 96 well flat bottom microtiter plate in a total volume of 250 μl per well. […]

Assay [8] deals with T1, P. xylostella WT RyR. As to the kind of experiment: [3H] ryanodine binding, membranes of Sf9 cells transiently expressing ROTH WT RyR. How it is done:
as §7, §8, §9, §10

Another assay addresses H. virescens RyR. The following applies: cited from earlier work.

Molecules are shown by their SMILES. Read-outs that look alike come from different tables or passages of the source. Bounds are passed on as bounds.

Take `Cn1c(=O)c2c(ncn2C)n(C)c1=O` [caffeine]: the “Intracellular calcium signal over time (Fluo8)” value at P. xylostella WT RyR [1] (Sf9-wtRyR) is “increased rapidly to the maximum in less than one minute after application and then decreased to baseline levels”.

As to `CNC(=O)c1cc(Cl)cc(C)c1NC(=O)c1cc(Br)nn1-c1ncccc1Cl` [chlorantraniliprole], the EC50 came to 17 nM at P. xylostella WT RyR [1] and 3720 nM on P. xylostella G4946E RyR [2]. Also, on P. xylostella WT RyR [1] (Sf9-wtRyR), the “Intracellular calcium signal over time (Fluo8)” value was “increased intracellular calcium concentrations that persisted”. Moreover, the “Loss of effect on the RyR channel with G4946E substitution versus WT” value on P. xylostella G4946E RyR [2] (G4946E versus WT, from EC50 values) is “roughly two orders of magnitude”. The Resistance ratio in the assay on Adoxophyes honmai was 77.2 fold. The “Resistance ratio of EC50 for ryanodine binding stimulation” value in assay [3] is listed as 159 fold. For the same compound, in the assay on Tuta absoluta, the Resistance level result is on record as “up to 2,414 fold”. For the same compound, the Resistance in the assay on Plutella xylostella (field populations from China with G4946E) is listed as 303–658 fold. Further, in the assay on Plutella xylostella, the “Resistance compared to susceptible strains” value is “over 200 fold”.

Turning to `Cc1cc(C(F)(C(F)(F)F)C(F)(F)F)ccc1NC(=O)c1cccc(I)c1C(=O)NC(C)(C)C[S+](C)[O-]` (centres unmarked) [flubendiamide sulfoxide], the “Calcium release response (Fura-2 fluorescence ratio)” value in assay [4] is listed as “reversible activation of the calcium release”; on P. xylostella G4946E RyR [5] it was “failed to induce any release of calcium”. Further, the concentration for a half-maximal effect (EC50) on P. xylostella WT RyR [1] (Sf9-wtRyR, stable WT RyR, Fluo8, ± standard error printed, read-out: EC50 (half-maximal integrated calcium signal)) is 245 nM; at P. xylostella G4946E RyR [2] (Sf9-mRyR, stable G4946E RyR, Fluo8, ± standard error printed, read-out: EC50 (half-maximal integrated calcium signal)), greater than 20000 nM. The “Intracellular calcium signal over time (Fluo8)” value at P. xylostella WT RyR [1] (Sf9-wtRyR) is listed as “increased intracellular calcium concentrations that persisted”.

`Cc1cc(C(F)(C(F)(F)F)C(F)(F)F)ccc1NC(=O)c1cccc(I)c1C(=O)NC(C)(C)CS(C)(=O)=O` [flubendiamide]: the “Calcium release response (Fura-2 fluorescence ratio)” value in assay [4] is on record as “permanently increased Ca^2+ levels”; on P. xylostella G4946E RyR [5], “did not show any calcium release”. The Resistance ratio with Adoxophyes honmai was 105 fold. The “Resistance ratio of EC50 for ryanodine binding stimulation” value in assay [3] is greater than 450 fold. Besides, in the assay with Tuta absoluta, the Resistance level is ≤ 1,742 fold. Also, the “Resistance compared to susceptible strains” value in the assay with Plutella xylostella is “over 200 fold”.

`CC(C)[C@@]1(O)[C@@H](OC(=O)c2ccc[nH]2)[C@@]2(O)[C@@]3(C)C[C@]4(O)O[C@@]5([C@H](O)[C@@H](C)CC[C@]35O)[C@@]2(O)[C@@]14C` [ryanodine]: the equilibrium dissociation constant (Kd) is 2.04 ± 0.12 nM in assay [6]; 14.7 ± 4.18 nM on P. xylostella G4946E RyR [7]; 12.9 ± 4.5 nM on P. xylostella WT RyR [8]; 13.9 ± 3.8 nM on H. virescens RyR (H. virescens native membrane preparations, different study); 3.82 ± 0.39 nM on H. virescens RyR (native preparation of H. virescens RyR).
